Source: publication PMC4506598, “A small molecular agent YL529 inhibits VEGF-D-induced lymphangiogenesis and metastasis in preclinical tumor models in addition to its known antitumor activities” (BMC Cancer, 2015)
Read-outs that look alike come from different tables or passages of the source.

Columns and labels:
parental LL/2 cells = experiment: CCK-8 cell viability assay; format: cell-based, murine; details: Mus musculus, 48 h, read-out: IC50, proliferation of parental LL/2 cells
Method: Human lymphatic endothelial cells (HLECs) were purchased from the ScienCell™ Research Laboratories and cultured in endothelial cell medium (ECM) containing 5 % fetal bovine serum (FBS), 1 % endothelial cell growth supplement (ECGS), 100 IU/mL penicillin and 100 μg/mL streptomycin. Lewis lung carcinoma LL/2 cells were obtained from American Type Culture Collection (ATCC) and cultured in DMEM containing 10 % FBS, 100 IU/mL penicillin and 100 μg/mL streptomycin. Subcultures were performed with trypsin-EDTA. All cells were incubated in an atmosphere of 5 % CO2 at 37 °C.
(§1) Cell viability assays were performed using CCK-8 kit. Briefly, VEGF-D-LL/2 cells, parental LL/2 cells and HLECs were treated with various concentrations of YL529 in 96-well culture plates for 48 h. CCK-8 was added to the cells and the plate was incubated for an additional 2–4 h. The optical density (OD) was then measured at 450 nm using a Spectra MAX M5 microplate spectrophotometer (Molecular Devices, Sunnyvale, CA).
(§2) VEGF-D-LL/2 cells were previously established by transfection with the pcDNA3.1 (+) expression vector containing mouse VEGF-D [31]. Similar to the previous data from our group, this study uses a VEGF-D antibody that detects the mature form of VEGF-D, because the fully mature cleaved form of 21 kD has the greatest affinity for the receptors, and can bind and activate not only VEGFR-2 but also VEGFR-3.

VEGF-D-LL/2 tumors [1] = experiment: VEGF-D-LL/2 syngeneic muscle tumor metastasis model; format: in vivo, C57 BL/6 mice; details: for percent of mice with local lymph node metastasis: vehicle 80 % ~ 90 %
Method: (§3) Seven-week-old female C57 BL/6 mice (Beijing animal center, Beijing, China) were used. VEGE-D-LL/2 cells (1 × 10^6) were injected intramuscularly and subcutaneously in hind limb of mice. The mice were randomized into 5 groups (n = 10 per groups) and orally administered 37.5, 75 and 150 mg/kg/day YL529, vehicle and saline alone (N.S.), respectively for 14 days when tumors became visible the 10th day after cells were implanted. Tumor growth and mice weight was monitored every 3 days. When animals were sacrificed with CO2 gas at the end of drug administration, tumor tissues, lung organs and local lymph nodes were removed, weighted and calculated by manual. Tumor size was determined by measuring the largest and perpendicular diameters every 3 days, tumor volume was calculated using the formula: volume (mm^3) = 0.5 × length × width^2. In addition, the same subcutaneously tumor models were used to monitor the survival time of experimental mice after drug administration. All animals experiments performed were in accordance with the guidelines of the institute’s Animal Care and Use Committee of Sichuan University (Chengdu, China).
(§4) Tumor tissues from vehicle and 150 mg/kg YL529 groups were fixed in 4 % paraformaldehyde, dehydrated and embedded in paraffin [27]. Sections of these tissues were subsequently incubated with LYVE-1 and corresponding second antibodies and visualized using peroxidase-DAB. TUNEL staining was also performed for fixed tissues (Promega, USA). Quantification was done as described. Briefly, the microvessel counting was done in representative 200× fields or three high-power (400×) fields of the highest vascular density.
(§5) Based on the safety profile and the in vivo pharmacokinetics of YL529, chronic oral administration of YL529 at daily dosages of 37.5 ~ 150 mg/kg/day was chosen to treat the mice with VEGF-D-LL/2 tumors (syngeneic s.c. and muscle models).

VEGFR-3 = details: 10 μM; cited from earlier work
[2] = pharmacokinetics after oral administration in mice; format: in vivo, C57 BL/6 mice; details: for half-life: po
Method: C57 BL/6 mice (n = 3 per time point) were administered 150 mg/kg YL529 orally. Blood samples of the mice were collected at appropriate intervals and the plasma concentration of YL529 was analyzed by HPLC (Waters, MA, USA). The pharmacokinetic characteristics and parameters were analyzed using Pharmacokinetic Software of Drug and Statistics (DAS, edited and published by the Mathematical Pharmacology Professional Committee of China, Shanghai, China).

p-VEGFR-3 = experiment: western blot of VEGFR-3/p-VEGFR-3 in HLECs; format: cell-based, human; details: after 2 h of treatment
Method: (§6) Standard western blot analysis was performed. Briefly, Cell lysates were washed with phosphate buffered saline (PBS) and lysed in RIPA (radioimmunoprecipitation assay) buffer. Then lysates were centrifuged at 12000 g for 30 min at 4 °C. The Bio-Rad Protein Assay kit (Bio-Rad Laboratories) was used to determine the samples protein concentration according to the manufacturers’ recommendations. The lysates were dissolved in 5 × SDS sample buffer and denatured, then subjected to 6 % to 12 % SDS-PAGE (sodium dodecyl sulfate polyacrylamide gel electrophoresis) according to molecular weight and transferred onto PVDF (polyvinylidene fluoride) (Bio-Rad, Hercules, CA) membranes. Membranes were blocked for 1 h in 5 % dried milk in TBS/T at room temperature and incubated overnight at 4 °C with the primary antibodies and horseradish peroxidase-conjugated secondary antibodies. Protein bands were visualized with enhanced chemiluminescent substrate (Amersham Biosciences Corp., Piscataway, NJ).
To gain in-depth insight into the molecular mechanism of anti-lymphangiogenesis effects of YL529, the expression levels of VEGFR-3/p-VEGFR-3 in HLECs were analyzed by western blotting in vitro.

[3] = high-dose toxicity, organ parameters in rats; format: in vivo; details: SD rats; for Heart index / Kidney index / Liver index / Lung index / Spleen index: oral 6000 mg/kg
VEGF-D-LL/2 cells [4] = experiment: CCK-8 cell viability assay; format: cell-based, murine; details: Mus musculus, 48 h, read-out: IC50, proliferation of VEGF-D-LL/2 cells
Method: The transfected murine LL/2 Lewis lung carcinoma cells with the pcDNA3.1 (+) expression vector containing mouse VEGF-D (VEGF-D-LL/2 cells) or pcDNA3.1 (vector alone) were transfected as reported before obtained in our laboratory. The cell lines were maintained in an atmosphere of 5 % CO2 at 37 °C in cell culture medium DMEM supplemented with 10 % fetal bovine serum. Western blot analysis was performed to analyze the expression of recombinant VEGF-D of these cells.
as §1, §2

VEGFR2 = details: 10 μM; cited from earlier work
HLECs [5] = experiment: tube formation assay; format: cell-based; details: Homo sapiens, 6 h
Method: The antilymphogenic effects of YL529 were analyzed in vitro using a tube-formation assay in HLECs. Briefly, 96-well plate was pre-incubated with 100 μl per well of Matrigel Matrix at 37 °C for 30 min, HLECs were seeded at a density of 3 × 10^4 cells per well in ECM medium. And after cultured in the presence or absence of designed concentrations of YL529 on Matrigel Matrix at 37 °C another 6 h, tube formation by endothelial cells was evaluated and photographed under an inverse microscope (Zeiss, Axiovert 200, Germany).
To further understand the mechanism of the anti-lymphogenic effect of YL529, the antilymphogenic tube formation effect of YL529 was analyzed with cultured HLECs in vitro [30]. […] In great contrast, HLECs without YL529 treatment spread and aligned with each other and formed a rich meshwork of branching capillary-like tubules within 6 h (Fig. 2c).

HLECs [6] = experiment: CCK-8 cell viability assay; format: cell-based; details: Homo sapiens, 48 h, read-out: IC50, proliferation of HLECs
Method: as §1
CCK-8 assay was used to evaluate the potential proliferation inhibition effect of HLECs after treated with YL529 or vehicle for 48 h.

HLECs [7] = experiment: transwell invasion assay; format: cell-based; details: Homo sapiens, read-out: inhibition of cell invasion
Method: Transwell migration assay was adopted to indicate the anti-metastasis effect of YL529 [26]. Briefly, the transwell were pre-coated with 25 % Matrigel Matrix containing growth factors (BD Biosciences, Bedford, MA) for 30 min at 37 °C. And then the bottom chambers were filled with 600 μl ECM medium and the top chambers were seeded with 4 × 10^4 cells HLECs (100 μl/well). The top and bottom chambers were incubated for another 24 h. Then cells on the top surface of the membrane were scraped with a cotton swab. Cells on the bottom side of the membrane were fixed with 4 % paraformaldehyde and stained with 0.1 % crystal violet (Sigma-Aldrich, USA). An inverted microscope (Zeiss, Axiovert 200, Germany) was used to obtain the images and the invading cells were quantified.
To further measure the effect of YL529 on HLECs invasion, we used a transwell assay and measured the number of HLECs that passed through a membrane barrier following treatment with various concentrations of YL529 [29].

safety profile in mice = format: in vivo; details: 150 mg/kg daily for 18 days
Method: To evaluate the safety profile of YL529 (150 mg/kg) in vivo, we have observed the gross measures such as weight loss, life span, behavior and feedings. Moreover, we have also investigated the mortality and clinical signs of C57BL/6 mice throughout oral administration period. In addition, blood samples and heart, liver, spleen, lung, and kidney tissues of mice were collected; the histopathological, serum biochemistry and hematological analysis were done to observe the possible pathological changes. In addition, we also evaluated the safety profiles of YL529 after oral administration with high dose (6000 mg/kg) for 14 days.
Currently, side effects are the prevalent shortcomings of anticancer drugs.

VEGF-D-LL/2 cells [8] = experiment: western blot of p-JNK, Bax, Bcl-2 in VEGF-D-LL/2 cells; format: cell-based, murine
Method: as §6

VEGF-D-LL/2 tumors [9] = experiment: VEGF-D-LL/2 syngeneic s.c. tumor model; format: in vivo
Method: as §3, §4, §5

HLECs [10] = experiment: scratch-induced (wound healing) migration assay; format: cell-based; details: Homo sapiens, read-out: inhibition of cell migration
Method: The anti-metastasis effect of YL529 was determined using a scratch-induced cell migration assay in vitro [24, 25]. Briefly, 1 × 10^5 HLECs were plated in 6 well plates and synchronized by serum-free ECM medium for 8 h, then used a micropipette tip to create a 2 mm-wide linear gap. Cells were washed to remove non-adherent cells and further incubated with fresh ECM medium containing or lacking YL529. An inverted microscope (Carl Zeiss, Germany) was used to photograph after YL529 treatment for another 48 h.
We next examined the effects of YL529 on HLECs migration using a wound healing migration assay.

[11] = C57 BL/6, mouse, plasma, single dose 150 mg/kg

**Q.** Which results are given for `CNC(=O)c1cc(Oc2ccc(NC(=O)c3cccc(C(F)(F)F)c3)cc2)ccn1` [YL529, N-methyl-4-(4-(3-(trifluoromethyl)benzamido)phenoxy)picolinamide4-methylbenzenesulfonate]?
**A.** IC50 (parental LL/2 cells): 9.6 µM; number of mice with lung metastasis and inguinal lymph node metastasis (VEGF-D-LL/2 tumors [1]): significantly reduced; percent of mice with local lymph node metastasis (VEGF-D-LL/2 tumors [1]; 37.5 mg/kg group): 50%; lymphangiogenesis in tumor tissues (LYVE-1 staining), change vs vehicle group (VEGF-D-LL/2 tumors [1]; 150 mg/kg for 14 days): 34.71%; percent of mice with local lymph node metastasis (VEGF-D-LL/2 tumors [1]; 150 mg/kg group): 20%; body weight (VEGF-D-LL/2 tumors [1]; end of drug administration): no loss of body weight; inhibition of VEGFR-3 activity (VEGFR-3): 97%; Cmax ([2]; C57 BL/6, mouse, plasma, 150 mg/kg, read-out: peak plasma concentration (Cmax)): 18000 ng/mL; half-life ([2]; C57 BL/6, mouse, plasma, 150 mg/kg, single dose 150 mg/kg, read-out: t1/2z (converted)): 4.11 h; half-life ([2]; C57 BL/6, mouse, plasma, 150 mg/kg, single dose 150 mg/kg, read-out: t1/2β (converted)): 6.03 h; AUC(0-inf) [2, 11]: 171 µg·h/mL; AUC(0-t) [2, 11]: 167 µg·h/mL; Tmax [2, 11]: 2 h; Cmax ([2]; single dose 150 mg/kg): 18030 ng/mL; T1/2α ([2]; single dose 150 mg/kg): 1.39 h; phosphorylation of VEGFR-3 (p-VEGFR-3): potently inhibited; total expression of VEGFR-3 (p-VEGFR-3): no change; weight changes of major organs (heart, liver, spleen, lung, kidney and brain) ([3]; 6000 mg/kg daily for 14 days): no obvious weight changes; Heart index ([3]; female): 0.42 ± 0.09%; Kidney index ([3]; female): 0.38 ± 0.09%; Liver index ([3]; female): 3.13 ± 0.09%; Lung index ([3]; female): 0.43 ± 0.06%; Spleen index ([3]; female): 0.25 ± 0.03%; Heart index ([3]; male): 0.42 ± 0.06%; Kidney index ([3]; male): 0.38 ± 0.09%; Liver index ([3]; male): 3.09 ± 0.13%; Lung index ([3]; male): 0.42 ± 0.09%; Spleen index ([3]; male): 0.24 ± 0.04%; IC50 (VEGF-D-LL/2 cells [4]): 7.2 µM; inhibition of VEGFR2 activity (VEGFR2): inhibited VEGFR2 activity; inhibition at 10 µM (HLECs [5]): 85.7%; IC50 (HLECs [6]): 5.5 µM; inhibition at 2.5 µM (HLECs [7]; 2.5 μM, compared with vehicle): 28%; inhibition at 5 µM (HLECs [7]; 5 μM): 65.9%; inhibition at 10 µM (HLECs [7]; 10 μM): 90.2%; body weight loss or tissue damage (safety profile in mice): no obvious body weight loss or tissue damage; expression level of Bcl-2 (VEGF-D-LL/2 cells [8]): increased; expression level of p-JNK (VEGF-D-LL/2 cells [8]): decreased; apoptotic tumor cells (TUNEL), increase vs. vehicle (VEGF-D-LL/2 tumors [9]; 150 mg/kg): 20 fold; mice survived to 54 days (VEGF-D-LL/2 tumors [9]; 150 mg/kg group): 60%; mice survived to 40 days (VEGF-D-LL/2 tumors [9]; YL529 treated groups): 90%; body weight (VEGF-D-LL/2 tumors [9]; at this dosage): no loss of body weight; tumor volume reduction (VEGF-D-LL/2 tumors [9]; compared with vehicle-treated group, oral, dose not given): 66.22%; inhibition at 2.5 µM (HLECs [10]; 2.5 μM): 44.3%; inhibition at 5 µM (HLECs [10]; 5 μM): 66.8%; inhibition at 10 µM (HLECs [10]; 10 μM): 79.8%
